≈ marks a conversion by molar mass, not a printed value.
Tests used:
Format in all cases: functional
Settings in all cases: read-out: ED50 (the source's name)
A549 = assay: Cytotoxicity against human A549 cells
SK-OV-3 = assay: Cytotoxicity against human SKOV3 cells
SK-MEL-2 = assay: Cytotoxicity against human SK-MEL-2 cells
XF498 = assay: Cytotoxicity against human XF498 cells
HCT-15 = assay: Cytotoxicity against human HCT15 cells

SMILES | EC50 (A549) [µg/mL] | EC50 (SK-OV-3) [µg/mL] | EC50 (SK-MEL-2) [µg/mL] | EC50 (XF498) [µg/mL] | EC50 (HCT-15) [µg/mL]
CCCCCCCCCCC/C=C/C[C@@H](OS(=O)(=O)O)[C@@H](O)[C@@H](N)CO | 9.9 (≈ 25 µM) | 8.2 (≈ 20.7 µM) | 4 (≈ 10.1 µM) | 4.6 (≈ 11.6 µM) | 3.7 (≈ 9.35 µM)
CCCCCCCCCC/C=C/C[C@@H](OS(=O)(=O)O)[C@@H](O)[C@@H](N)CO | 0.3 (≈ 0.786 µM) | 0.3 (≈ 0.786 µM) | 0.3 (≈ 0.786 µM) | 0.3 (≈ 0.786 µM) | 0.3 (≈ 0.786 µM)

Source: ChEMBL document CHEMBL1150606, “Cytotoxic sphingosine 4-sulfates from the sponge Spirastrella abata” (2002)
